Values quoted from earlier work, collected in patent publication US20240153607A1, “System for Determining Treatment Timing and Methods of Treatment Timed Based on Biological Process Indicators” (Arcascope Inc., priority 2022, published 2024).

Conditions: cancer treatments in humans; [Hrushesky], [Lévi1990]

Compound	time of day at which the drug is most tolerable (toxicity by time of day)
COc1cccc2c1C(=O)c1c(O)c3c(c(O)c1C2=O)C[C@@](O)(C(=O)CO)C[C@@H]3O[C@H]1C[C@H](N)[C@H](O)[C@H](C)O1 [doxorubicin]	most tolerable in the morning
COc1cccc2c1C(=O)c1c(O)c3c(c(O)c1C2=O)C[C@@](O)(C(=O)CO)C[C@@H]3O[C@H]1C[C@H](N)[C@H](O[C@@H]2CCCCO2)[C@H](C)O1 [theprubicin]	most tolerable in the morning
